Assay results: US8822535B2 (priority 2005, dated 2014)
Values joined by “and” are separate entries in the source; they are usually repeats but may differ in a detail not shown here. Equal entries are not always repeated. Where two headings read alike, the source gives them in different places.

Key:
mice [1] = tested on: mice; parameters: species or system mouse (C57BL/6); conditions: mouse, in vivo; for survival in lethal hypoxia: sc
mice [2] = conditions: mouse, in vivo; for effective dose (to lower subcutaneous temperature) / effect on body (subcutaneous) temperature: sc
rats = experiment: Gas matrix: metabolic flexibility in altered gas environments, rats; type: in vivo, rat; conditions: ambient 7 to 10° C., 6-hour treatment
Protocol: (§1) Metabolic flexibility was evaluated in mice rats and dogs using altered gas environments. Three parameters were used to define this reduction in metabolism including changes in carbon dioxide production, oxygen consumption measured by respirometry, and core temperature as measured using telemetry. In experiments with mice and rats the animals were placed into sealed chambers with one gas import and one gas export. For dogs a mask was placed over the snout of the animal with two hoses (import and export) attached to the mask. The flow rate of gas for each of the animals mice—500 cc per minute, rats—2 liters per minute, and dogs 40 liters per minute. Each atmosphere was constructed from compressed gas by dilution into room air unless otherwise noted. For rat and mouse experiments the ambient temperature was 7 to 10° C. during exposure to the test gases. For dogs ambient temperature was room temperature (22° C.).
(§2) Evidence of depression in metabolic rate of greater than 5-fold as judged by carbon dioxide production or oxygen consumption during a 6-hour treatment is described by “Yes”; […]; “N/D” denotes experiments not done. The temperature drop in the dog experiment (Carbon dioxide+low oxygen+Helium) was approximately 1.5° C. over the course of 30 minutes of exposure. This drop in temperature was considered significant because the dog was 12 kg and no such temperature drop was seen during extensive baseline recording of the animal in room air.

[3] = previously reported in the literature; cited from earlier work
mice [4] = experiment: Gas matrix: metabolic flexibility in altered gas environments, mice; type: in vivo, mouse; conditions: for depression in metabolic rate, Mouse: ambient 7 to 10° C., 6-hour treatment
Protocol: as §1, §2

mice [5] = type: in vivo, mouse
dogs = experiment: Gas matrix: metabolic flexibility in altered gas environments, dogs; type: in vivo, dog; conditions: 9%
Protocol: as §1, §2

Drosophila melanogaster [6] = experiment: Anoxia tolerance of Drosophila melanogaster after CO2 / H2S treatment; type: in vivo; conditions: adult flies
Protocol: Adult flies were introduced into 35 mL tubes made of glass with a gas-tight rubber stopper (Balsh tubes). This was usually accomplished by anesthetizing flies with CO2, moving groups of flies to vials with food to recover for at least 2 hours, and then transferring them into the Balsh tube. To exchange the gaseous environment in the Balsh tube, two 18 gauge needles were inserted into the rubber stopper, and gas is blown into one of the needles at 100 mL/min. To prevent dessication, gasses were humidified by bubbling through 10 mL of water before passing it through the Balsch tube. The water in the bubbler is equilibrated with the gas for at least 20 minutes before starting the experiment.
For “stopped-flow” experiments, gas exchange proceeded for 60 minutes before sealing the tube. For “low-flow” experiments, gas flow continued throughout the experiment. CO2 was from the house source (100%), and anoxic environments were established by flushing out room air with 100% nitrogen (N2). Care was taken to prevent introduction of room air into the system while switching the atmosphere from CO2 to N2.
After anoxic treatment, oxygen was reintroduced into the Balsh tube by flushing with house air for 20 minutes. The rubber stopper was then removed and a food vial is inverted over the top of the Balsh tubes with Parafilm. […] Viability was scored at least 18 hours after the end of anoxic treatment. After two weeks, if the food vials contained larvae and/or pupae the flies were considered to be fertile.

Drosophila melanogaster [7] = experiment: as above; type: in vivo
nematodes (C. elegans) = experiment: Nematode lethal hypothermia screening assay; type: in vivo; conditions: carbon monoxide atmosphere at room temperature prior to 4 degrees C. for 16 hrs
Excerpt: A screening assay was established using nematodes (C. elegans). […] Worms were exposed for X minutes at room temperature to an atmosphere containing Y % carbon monoxide, prior to exposing them to 4 degrees C. for 16 hrs. […] Since carbon monoxide is a known stasis inducer in nematodes and neonatal human foreskin keratinocytes, the nematode assay is capable of identifying stasis inducing compounds as such by their ability to increase the survivability of worms exposed to lethal hypothermia when the worms are pre-equilibrated in the stasis inducer or other active compound.

[8] = cited from earlier work
[9] = tested on: human foreskin keratinocytes; type: cell-based
[10] = 100 ppb H2Se, less than 10 minutes (FIG. 26)

NCCS [cysteamine]
survival in lethal hypoxia (mice [1]): 45 min
effective dose (to lower subcutaneous temperature) (mice [2]): 7.58 mmol/kg

[SeH2] [H2Se, hydrogen selenide]
depression in metabolic rate, Rat (rats; 0.003% in room air): Yes 0.003% (Evidence of depression in metabolic rate of greater than 5-fold as judged by carbon dioxide production or oxygen consumption during a 6-hour treatment is described by “Yes”)
concentration lethal to animals [3]: greater than 1 ppm
depression in metabolic rate, Mouse (mice [4]; 0.0001% in room air): Yes 0.0001% (Evidence of depression in metabolic rate of greater than 5-fold as judged by carbon dioxide production or oxygen consumption during a 6-hour treatment is described by “Yes”)
core body temperature (CBT) (mice [4]; mouse, 1.2 ppm of H2Se, 2 hours and 10 minutes, 5° C. ambient (FIG. 34)): significant drop in CBT
core body temperature and respiration (mice [5]; 10 ppb of H2Se (FIG. 27)): reduction in core body temperature and respiration
core body temperature (mice [5]; [10]): drop in core body temperature
reduction in metabolic activity as evidenced by respiration (mice [5]; [10]): 3 fold
reversibility of effects (mice [5]; tests used to evaluate reversibility with H2S): fully reversible

CSC [dimethyl sulfide]
effect on body (subcutaneous) temperature (mice [2]): did not reduce subcutaneous temperature

OCCS [2-mercapto-ethanol]
toxicity (mice [2]): toxic at the effective temperature reducing dose
effect on body (subcutaneous) temperature (mice [2]): reduced body temperature

N#C[S-].[Na+] [sodium thiocyanate]
effective dose (to lower subcutaneous temperature) (mice [2]): 4.67 mmol/kg

[SeH2] [sodium selenide]
effect on body (subcutaneous) temperature (mice [2]): did not reduce subcutaneous temperature

O=C=O [CO2, carbon dioxide]
depression in metabolic rate, Rat (rats; 15%): Yes 15% (Evidence of depression in metabolic rate of greater than 5-fold as judged by carbon dioxide production or oxygen consumption during a 6-hour treatment is described by “Yes”)
depression in metabolic rate, Mouse (mice [4]; 15%): Yes 15% (Evidence of depression in metabolic rate of greater than 5-fold as judged by carbon dioxide production or oxygen consumption during a 6-hour treatment is described by “Yes”)
control of metabolic flexibility (mice [4]; mice, 15% CO2): affords control of metabolic flexibility
tidal volume and respiration rate (mice [4]; mice, 15% CO2): tidal volume increases but respiration rate remains unchanged
depression in metabolic rate, Dog (dogs; mask, room temperature (22° C.)): No 9% (“No” (reduction or less than a 5-fold reduction in these values is described as such)
core body temperature (CBT) (dogs; dog, 12% and 15% carbon dioxide in room air (FIG. 40)): A similar drop
survival (Drosophila melanogaster [6]; 100% CO2 pretreatment 30 minutes, 19 h anoxic exposure, stopped-flow): 54%
survival (Drosophila melanogaster [6]; 100% CO2 pretreatment 90 minutes, 19 h anoxic exposure, stopped-flow): 28%
survival (Drosophila melanogaster [6]; 10 min CO2 pretreatment, 17, 22, and 24 h of anoxia, low-flow): no survival was observed
survival (Drosophila melanogaster [6]; CO2 10 minutes before 20 h anoxic exposure, low-flow (no H2S)): 6%
survival (Drosophila melanogaster [6]; CO2 pretreatment and CO2 for 20 minutes immediately following anoxic exposure): no flies survived
survival (Drosophila melanogaster [7]; adult flies, CO2 then N2 with bubbler water not equilibrated with N2, 13 h anoxic exposure): no flies survived
movement upon reoxygenation (Drosophila melanogaster [7]; larvae, pretreated, 24.5 h anoxia): can resume movement
pupae formed (Drosophila melanogaster [7]; pool of 0-19 h old embryos, CO2 10 min pretreatment, anoxia 24 h): 20 pupae

CC(=O)N[C@@H](CS)C(=O)O [N-acetyl-L-cysteine]
effect on body (subcutaneous) temperature (mice [2]): did not reduce subcutaneous temperature

N=C(N)[SeH] [selenourea]
protection from lethal hypoxia (mice [1]): did not enhance survival in hypoxia
effect on body (subcutaneous) temperature (mice [2]): reduced body temperature

NCCCNCCSP(=O)(O)O [phosphorothioic acid S-(2-((3-aminopropyl)amino)ethyl) ester]
protection from lethal hypoxia (mice [1]): did not enhance survival in hypoxia
effect on body (subcutaneous) temperature (mice [2]): reduced body temperature

C[S-].[Na+] [sodium thiomethoxide]
survival in lethal hypoxia (mice [1]): 60 min
effective dose (to lower subcutaneous temperature) (mice [2]): 4.61 mmol/kg

O=C(O)CS [thioglycolic acid]
toxicity (mice [2]): toxic at the effective temperature reducing dose
effect on body (subcutaneous) temperature (mice [2]): reduced body temperature

CC(O)=S [Thioacetic acid]
protection from lethal hypoxia (mice [1]): did not enhance survival in hypoxia
effect on body (subcutaneous) temperature (mice [2]): reduced body temperature

OC1CCSCC1 [tetrahydrothiopyran-4-ol]
survival in lethal hypoxia (mice [1]): 15 min

SCCOCCS [2-mercaptoethyl ether]
toxicity (mice [2]): toxic at the effective temperature reducing dose
effect on body (subcutaneous) temperature (mice [2]): reduced body temperature

[C-]#[O+] [CO, carbon monoxide]
survival after exposure to cold (nematodes (C. elegans)): survived with high viability
lethality and suspended animation (C. elegans embryos; 100% carbon monoxide, 24 hr, room temperature): not lethal and induced reversible suspended animation
survival (C. elegans embryos; 500 ppm oxygen balanced with carbon monoxide, 24 hr): entered into suspended animation and survived
survival to adulthood (C. elegans embryos; hif-1(ia04) embryos, 0.25 kPa O2/CO, 24 hrs): 83.9% ± 13.8
survival to adulthood (C. elegans embryos; hif-1(ia04) embryos, 0.25 kPa O2/CO, 24 hrs, listed as carbon monoxide): 84.0%
survival to adulthood (C. elegans embryos; wild-type (N2) embryos, 0.25 kPa O2/CO, 24 hrs): 78.7% ± 21.9
survival to adulthood (C. elegans embryos; wild-type (N2) embryos, 0.25 kPa O2/CO, 24 hrs, listed as carbon monoxide): 78.7%
viability to adulthood (C. elegans embryos; wild-type embryos, 0.05 kPa O2 balanced with carbon monoxide, 24 hrs): 96.2%
survival to adulthood (C. elegans embryos; wild-type embryos, 101 kPa CO (100% CO), 24 hrs): 81.5%
symptoms ([8]; 50 ppm): no symptoms
symptoms ([8]; 200 ppm, within two-three hours): slight headache
symptoms ([8]; 400 ppm, within one to two hours): frontal headache
symptoms ([8]; 800 ppm, within 45 minutes): dizziness, nausea, and/or convulsions
lethality ([8]; around 1000 ppm, exposure for more than around 1-2 minutes): can expire
# cells recovered [9]: 167
Total colonies [9]: 542 colonies (many of which were very and 780 colonies (many of which were very
dead (tb+), SUM [9]: 61
fraction alive [9]: 0.91 and 0.50 and 0.77 and 0.83 and 0.54 and 0.80
fraction alive, SUM [9]: 0.63
growth of keratinocyte populations [9]: significant growth
live (tb−), SUM [9]: 106
survival of skin cells relative to room air [9]: 100 fold
survival (Drosophila melanogaster [6]; treated only with CO for 10 min before the anoxic exposure (18.5 h)): 11%

CS(=O)[O-].[Na+] [sodium methane sulfinate]
effect on body (subcutaneous) temperature (mice [2]): did not reduce subcutaneous temperature
